Laboratory results taken from patent publication US9963448B2, “Bicyclic inhibitors of PAD4” (Padlock Therapeutics, Inc., priority 2015, dated 2018).
Structures can show the parent of a compound that is named as a salt. Where two headings read alike, the source gives them in different places.

Columns and labels:
hPAD4 = hPAD4 (Homo sapiens, UniProt Q9UM07); experiment: hPAD4 RFMS (RapidFire mass spectrometry) PAD4 inhibition assay; assay type: biochemical; settings: hPAD4 enzyme, RFMS readout;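 as to hPAD4 RFMS pIC50: grade E means pIC50 at most 4 and F means pIC50 4.0 to 5.0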
Experimental: (§1) Compounds of the present invention were assayed as inhibitors of PAD4 using the assay protocol described below.
(§2) Compound stock solutions were stored at RT. […] Final assay conditions were as follows:
(§3) Total incubation time: 65 mins at 37° C.
(§4) Stop solution: 40 μl 5% TCA in ACN
(§5) The compound numbers correspond to the compound numbers in Table 1. […] The term pIC50=−log(IC50). […] “NA” stands for “not assayed.”

mPAD4 = mPAD4 (Mus musculus, UniProt Q9Z183); experiment: mPAD4 RFMS PAD4 inhibition assay; assay type: biochemical; settings: mPAD4, RFMS readout;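 as to mPAD4 RFMS pIC50: grade E means pIC50 at most 4 and F means pIC50 4.0 to 5.0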
Experimental: as §1, §2, §3, §4, §5

[1] = pIC50=−log(IC50), read-out: hPAD4 RFMS pIC50 (converted)
[2] = pIC50=−log(IC50), read-out: mPAD4 RFMS pIC50 (converted)

hPAD4, sequence (Q9UM07 whole entry): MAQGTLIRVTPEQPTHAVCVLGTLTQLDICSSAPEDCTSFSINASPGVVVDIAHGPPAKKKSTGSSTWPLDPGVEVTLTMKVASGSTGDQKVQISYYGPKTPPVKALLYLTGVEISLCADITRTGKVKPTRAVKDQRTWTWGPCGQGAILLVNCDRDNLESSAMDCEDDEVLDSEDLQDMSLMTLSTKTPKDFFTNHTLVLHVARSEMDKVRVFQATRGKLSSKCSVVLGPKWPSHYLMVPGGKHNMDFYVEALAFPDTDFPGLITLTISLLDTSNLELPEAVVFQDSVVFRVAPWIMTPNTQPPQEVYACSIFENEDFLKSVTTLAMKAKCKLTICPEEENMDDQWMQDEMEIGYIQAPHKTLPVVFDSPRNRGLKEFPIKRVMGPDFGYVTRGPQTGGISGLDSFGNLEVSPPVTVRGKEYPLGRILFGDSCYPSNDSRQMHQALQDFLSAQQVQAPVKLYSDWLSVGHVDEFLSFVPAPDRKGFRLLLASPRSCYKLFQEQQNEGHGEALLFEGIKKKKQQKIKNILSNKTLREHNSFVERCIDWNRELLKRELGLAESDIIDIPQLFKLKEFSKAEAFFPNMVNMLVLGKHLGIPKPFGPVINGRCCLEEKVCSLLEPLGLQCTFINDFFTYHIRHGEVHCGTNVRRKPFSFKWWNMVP
mPAD4, sequence (Q9Z183 whole entry): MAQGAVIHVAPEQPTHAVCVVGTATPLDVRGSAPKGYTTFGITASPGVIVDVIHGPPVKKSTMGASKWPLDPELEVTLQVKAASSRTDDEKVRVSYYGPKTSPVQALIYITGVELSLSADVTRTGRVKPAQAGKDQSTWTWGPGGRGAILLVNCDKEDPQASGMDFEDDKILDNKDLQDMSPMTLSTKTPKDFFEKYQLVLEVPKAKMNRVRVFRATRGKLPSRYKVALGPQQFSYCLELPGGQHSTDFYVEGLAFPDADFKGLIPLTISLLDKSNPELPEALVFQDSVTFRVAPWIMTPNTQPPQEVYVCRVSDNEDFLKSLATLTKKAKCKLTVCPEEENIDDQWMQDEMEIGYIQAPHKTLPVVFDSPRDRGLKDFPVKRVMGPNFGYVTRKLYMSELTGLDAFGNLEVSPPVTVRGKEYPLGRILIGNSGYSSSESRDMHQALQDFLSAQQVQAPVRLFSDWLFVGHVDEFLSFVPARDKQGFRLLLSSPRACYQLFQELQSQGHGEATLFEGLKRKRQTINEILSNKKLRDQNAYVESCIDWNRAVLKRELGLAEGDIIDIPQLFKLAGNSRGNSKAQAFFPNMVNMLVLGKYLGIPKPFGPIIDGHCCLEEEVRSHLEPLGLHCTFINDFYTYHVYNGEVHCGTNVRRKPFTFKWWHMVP

Compound	IC50 (hPAD4; [1]) [µM]	IC50 (hPAD4; read-out: hPAD4 RFMS IC50) [µM]	IC50 (mPAD4; [2]) [µM]	IC50 (mPAD4; read-out: mPAD4 RFMS IC50) [µM]
Cn1c(-c2cc3cccnc3n2CC2CC2)nc2cc(C(=O)N3CCC[C@@H](N)C3)cc(OCC(F)(F)F)c21 [Compound I-59]	1 to 10	1 to 5	< 1	< 1
Cn1c(-c2cc3cccnc3n2CC2CC2)nc2cc(C(=O)N3C[C@@H](N)C[C@H](F)C3)ccc21 [Compound I-66]	1 to 10	< 1	1 to 10	1 to 5
COc1cc2c(cc1C(=O)N1CCC[C@@H](N)C1)nc(-c1cc3cccnc3n1CC1CC1)n2C [Compound I-68, (3R)-1-{2-[1-(cyclopropylmethyl)-1H-pyrrolo[2,3-b]pyridin-2-yl]-6-methoxy-1-methyl-1H-1,3-benzodiazole-5-carbonyl}piperidin-3-amine hydrochloride]	1 to 10	5 to 10	10 to 100	> 10
CC(=O)Nc1ccnc2c1cc(-c1nc3cc(C(=O)N4CCC[C@@H](N)C4)ccc3n1C)n2CC1CC1 [Compound I-69, N-(2-{5-[(3R)-3-Aminopiperidine-1-carbonyl]-1-methyl-1H-1,3-benzodiazol-2-yl}-1-(cyclopropylmethyl)-1H-pyrrolo[2,3-b]pyridin-4-yl)acetamide]	1 to 10	< 1	10 to 100	> 10
COc1ccc2cc(-c3nc4cc(C(=O)N5CCC[C@@H](N)C5)ccc4n3C)n(CC3CC3)c2n1 [Compound I-70, (3R)-1-{2-[1-(Cyclopropylmethyl)-6-methoxy-1H-pyrrolo[2,3-b]pyridin-2-yl]-1-methyl-1H-1,3-benzodiazole-5-carbonyl}piperidin-3-amine]	< 1	< 1	< 1	< 1
CCn1c(-c2cc3cccnc3n2CC2CC2)nc2cc(C(=O)N3C[C@@H](N)C[C@H](F)C3)cc(OC)c21 [Compound I-71]	1 to 10	1 to 5	< 1	< 1
Cn1c(-c2cc3cccnc3n2CC2CC2)nc2cc(C(=O)N3C[C@@H](N)C[C@H](F)C3)cc(OCC(F)F)c21 [Compound I-72]	1 to 10	1 to 5	< 1	< 1
Cn1c(-c2cc3cccnc3n2CC2CC2)nc2cc(C(=O)N3C[C@@H](N)C[C@H](F)C3)cc(OC(F)F)c21 [Compound I-73]	1 to 10	1 to 5	< 1	< 1
COc1cc(C(=O)N2C[C@@H]3[C@@H](N)[C@@H]3C2)cc2nc(-c3cc4cccnc4n3CC3CC3)n(C)c12 [Compound I-76]	10 to 100	> 10	10 to 100	> 10
COc1cc(C(=O)N2CC3CCC2C3N)cc2nc(-c3cc4cccnc4n3CC3CC3)n(C)c12 (stereo not shown) [Compound I-81]	< 1	< 1	< 1	< 1
COc1cc(C(=O)N2CC(O)(C3(N)CCCC3)C2)cc2nc(-c3cc4cccnc4n3CC3CC3)n(C)c12 [Compound I-84]	10 to 100	> 10	10 to 100	> 10
COc1cc(C(=O)N2CC3(CCC3N)C2)cc2nc(-c3cc4cccnc4n3CC3CC3)n(C)c12 (stereo not shown) [Compound I-85]	10 to 100	> 10	10 to 100	> 10
COc1cc(C(=O)N2C[C@H](N)CC[C@@H]2C)cc2nc(-c3cc4cccnc4n3CC3CC3)n(C)c12 [Compound I-87]	< 1	< 1	< 1	< 1
COc1cc(C(=O)N2C[C@H](N)CC[C@H]2C)cc2nc(-c3cc4cccnc4n3CC3CC3)n(C)c12 [Compound I-88]	10 to 100	> 10	1 to 10	5 to 10
COc1cc(C(=O)N2C[C@@H](N)CC[C@@H]2C)cc2nc(-c3cc4cccnc4n3CC3CC3)n(C)c12 [Compound I-89]	10 to 100	> 10	10 to 100	> 10
COc1cc(C(=O)N2CC[C@H](F)[C@H](N)C2)cc2nc(-c3cc4cccnc4n3CC3CC3)n(C)c12 [Compound I-90]	1 to 10	1 to 5	1 to 10	1 to 5

Compound	IC50 (hPAD4; [1]) [µM]	IC50 (hPAD4; read-out: hPAD4 RFMS IC50) [µM]	IC50 (mPAD4; [2]) [µM]	IC50 (mPAD4; read-out: mPAD4 RFMS IC50) [µM]
COc1cc(C(=O)N2CC[C@@H](F)[C@@H](N)C2)cc2nc(-c3cc4cccnc4n3CC3CC3)n(C)c12 [Compound I-91]	< 1	< 1	< 1	< 1
CCn1c(-c2cc3ccc(OC)nc3n2CC2CC2)nc2cc(C(=O)N3C[C@@H](N)C[C@H](F)C3)cc(OC)c21 [Compound I-92]	1 to 10	1 to 5	< 1	< 1
COc1cc(C(=O)N2C[C@@H](N)C[C@H](F)C2)cc2nc(-c3cc4cccnc4n3CC3(C)CC3)n(C)c12 [Compound I-93, (3S,5S)-5-Fluoro-1-(7-methoxy-1-methyl-2-{1-[(1-methylcyclopropyl)methyl]-1H-pyrrolo[2,3-b]pyridin-2-yl}-1H-1,3-benzodiazole-5-carbonyl)piperidin-3-amine]	1 to 10	1 to 5	1 to 10	1 to 5
COc1ccc2cc(-c3nc4cc(C(=O)N5CCC[C@@H](N)C5)cc(OC)c4n3CC(F)F)n(CC3CC3)c2n1 [Compound I-94, (3R)-1-{2-[1-(cyclopropylmethyl)-6-methoxy-1H-pyrrolo[2,3-b]pyridin-2-yl]-1-(2,2-difluoroethyl)-7-methoxy-1H-1,3-benzodiazole-5-carbonyl}piperidin-3-amine]	< 1	< 1	< 1	< 1
COc1cc(C(=O)N2CC3(CCOC[C@@H]3N)C2)cc2nc(-c3cc4cccnc4n3CC3CC3)n(C)c12 [Compound I-95]	10 to 100	> 10	10 to 100	> 10
Cn1c(-c2cc3cccnc3n2CC2CC2)nc2cc(C(=O)N3C[C@H](N)C[C@@H](F)C3)cc(OC(F)F)c21 [Compound I-98]	< 1	< 1	< 1	< 1
COc1cc(C(=O)N2CCCC3(CNC3)C2)cc2nc(-c3cc4cccnc4n3CC3CC3)n(C)c12 [Compound I-100]	> 100	> 10	> 100	> 10
COc1cc(C(=O)N2CCC[C@@H](N)C2)cc2nc(-c3cc4cccnc4n3[C@H](C)C3CC3)n(C)c12 [Compound I-101, (3R)-1-(2-{1-[(1R)-1-cyclopropylethyl]-1H-pyrrolo[2,3-b]pyridin-2-yl}-7-methoxy-1-methyl-1H-1,3-benzodiazole-5-carbonyl)piperidin-3-amine]	1 to 10	1 to 5	1 to 10	1 to 5
COc1cc(C(=O)N2CCC[C@@H](N)C2)cc2nc(-c3cc4cccnc4n3[C@@H](C)C3CC3)n(C)c12 [Compound I-102, (3R)-1-(2-{1-[(1S)-1-cyclopropylethyl]-1H-pyrrolo[2,3-b]pyridin-2-yl}-7-methoxy-1-methyl-1H-1,3-benzodiazole-5-carbonyl)piperidin-3-amine]	1 to 10	< 1	1 to 10	1 to 5
Cc1cc2c(cc1C(=O)N1CCC[C@@H](N)C1)nc(-c1cc3cccnc3n1CC1CC1)n2C [Compound I-103, (3R)-1-{2-[1-(cyclopropylmethyl)-1H-pyrrolo[2,3-b]pyridin-2-yl]-1,6-dimethyl-1H-1,3-benzodiazole-5-carbonyl}piperidin-3-amine hydrochloride]	10 to 100	> 10	10 to 100	> 10
COc1ccc2cc(-c3nc4cc(C(=O)N5CCC[C@@H](N)C5)cc(OC(F)F)c4n3C)n(CC3CC3)c2n1 [Compound I-104, (3R)-1-{2-[1-(cyclopropylmethyl)-6-methoxy-1H-pyrrolo[2,3-b]pyridin-2-yl]-7-(difluoromethoxy)-1-methyl-1H-1,3-benzodiazole-5-carbonyl}piperidin-3-amine]	< 1	< 1	< 1	< 1
CCc1ccc2cc(-c3nc4cc(C(=O)N5CCC[C@@H](N)C5)cc(OC)c4n3CC)n(CC3CC3)c2n1 [Compound I-105, (3R)-1-{2-[1-(cyclopropylmethyl)-6-ethyl-1H-pyrrolo[2,3-b]pyridin-2-yl]-1-ethyl-7-methoxy-1H-1,3-benzodiazole-5-carbonyl}piperidin-3-amine]	< 1	< 1	< 1	< 1
CCn1c(-c2cc3ccc(OC)nc3n2CC2CC2)nc2cc(C(=O)N3CCC[C@@H](N)C3)cc(OC)c21 [Compound I-106]	< 1	< 1	< 1	< 1
COc1cc(C(=O)N2CC[C@]3(CNCCC3(F)F)C2)cc2nc(-c3cc4cccnc4n3CC3CC3)n(C)c12 [Compound I-107]	10 to 100	> 10	10 to 100	> 10
COc1cc(C(=O)N2CC[C@@]3(CNCCC3(F)F)C2)cc2nc(-c3cc4cccnc4n3CC3CC3)n(C)c12 [Compound I-108]	10 to 100	> 10	10 to 100	> 10
